A short description of experiment [1]: microbe, parasite or virus in culture. Particulars: Mycobacterium tuberculosis, 96 h, read-out: pIC50 (converted).
The nature of experiment [2]: microbe, parasite or virus in culture. Particulars: Mycobacterium tuberculosis, 72 h, read-out: pIC50 (converted).

We go through 34 molecules from ChEMBL document CHEMBL3988442, “University of Dundee, Small-Polar-MMV Screening Library” (2021).

With `Cc1ccc(-n2nnnc2NCC2CCCO2)cc1` (stereo not drawn), the IC50 in experiment [1] is 119 µM; in experiment [2], 113 µM.
The matching figures for `CCc1cc(CN(C)C(=O)c2cnon2)on1`: greater than 50.1 µM and greater than 50.1 µM.
The matching figures for `NCc1noc(-c2ccc(Cl)cc2F)n1`: 242 µM and 277 µM.
For `CC(C)c1ccc(NC(=O)CN)cc1`, in that order: 204 µM and 245 µM.
As to `N#Cc1cccc(N2CCCC(CO)(Cc3ccccc3F)C2)n1` (stereo not drawn), the figures for the IC50 in experiment [1] and in experiment [2] were greater than 50.1 µM and 12.6 µM, respectively.
Regarding `Cc1nc(COc2ccc(C(=O)OCC#N)cc2)no1`, the IC50 in experiment [1] and in experiment [2] was greater than 501 µM each time.
For `COc1ccc(CCN)cc1F`, the results for the IC50 in experiment [1] and in experiment [2] were 247 µM and 304 µM, respectively.
For `c1ccc(NCCNc2ccccn2)cc1`, in that order: 217 µM and 230 µM.
The matching figures for `Cc1cccc(C(=O)NCc2cccc(O)c2)n1`: 489 µM and 172 µM.
The matching figures for `Cc1nn(C)c2ncnc(N(C)CC3CCN(CC(C)C)C3)c12` (stereo not drawn): greater than 50.1 µM and greater than 50.1 µM.
Take `O=C(CNCC1CC1)Nc1ccc(F)cc1`: the IC50 in experiment [1] is greater than 501 µM; in experiment [2], 215 µM.
Consider `Clc1ccccc1CN1CCc2nc(C3CCNCC3)ncc2C1`, for which the IC50 in experiment [1] was greater than 50.1 µM; in experiment [2] it was 4.89 µM.
For `CCNC(=O)c1cc2ccc(OC)cc2[nH]1`, in that order: greater than 501 µM and 283 µM.
For `CN(Cc1nc2ccccc2o1)C1CCCN(c2cccnn2)C1` (stereo not drawn), in that order: greater than 50.1 µM and greater than 50.1 µM.
Consider `OCCN1CCC2(CCc3cc(-c4ccoc4)ccc32)CC1`, for which the IC50 was 24.1 µM in experiment [1] and 23.5 µM in experiment [2].
The matching figures for `Cc1cccc(CN2C[C@@H](CN3CCCN(C)CC3)C[C@H](CO)C2)n1`: greater than 50.1 µM and greater than 50.1 µM.
As to `O=C(Nc1cc[nH]n1)c1csc(I)c1`, the values for the IC50 in experiment [1] and in experiment [2] were greater than 501 µM and 193 µM, respectively.
For `CN(C)c1cc(C(=O)Nc2ccccc2C(=O)NC(C)(C)C)ccn1`, in that order: greater than 50.1 µM and greater than 50.1 µM.
For `O=C(c1ccno1)N1CCCC(c2ncncc2-c2ccncc2)C1` (stereo not drawn), in that order: greater than 50.1 µM and greater than 50.1 µM.
The matching figures for `COc1ccc(C(C)CO)cc1` (stereo not drawn): greater than 501 µM and greater than 501 µM.
On to `O=C(CSc1cnn[nH]1)N1CCc2ccccc2C1`, for which the IC50 in experiment [1] and in experiment [2] was greater than 501 µM in each case.
As for `CN(Cc1ccco1)C(=O)CCc1ccc(C#N)cc1`, the values for the IC50 in experiment [1] and in experiment [2] were 77.4 µM and 31.7 µM, respectively.
The matching figures for `COC(=O)CCCC(=O)N1CCCc2ccc(F)cc21`: 277 µM and 213 µM.
The matching figures for `CC(O)CN1C(=O)C=CC1=O` (stereo not drawn): 286 µM and 135 µM.
For `NC(=O)CN1CCC(COCc2ccccc2)C1` (stereo not drawn), in that order: 292 µM and 268 µM.
On to `COc1cccc(C(=O)NCc2ccoc2C)n1`, for which the IC50 in experiment [1] was greater than 501 µM; in experiment [2], 364 µM.
The matching figures for `NS(=O)(=O)N1CCN(CCCc2cccc(F)c2)CC1`: greater than 501 µM and greater than 501 µM.
For `COCc1nn(Cc2cccc3cccnc23)c(=O)o1`, the IC50 is 51.6 µM in experiment [1] and 16.8 µM in experiment [2].
For `CC(CNC(=O)c1ccc(Cl)cn1)Cn1ccnc1` (stereo not drawn), in that order: 176 µM and 159 µM.
For `COc1ncccc1CN(C)S(=O)(=O)c1cccs1`, in that order: 286 µM and 159 µM.
The matching figures for `CN(C)C(=O)CCN1CCCC1c1ccsc1` (stereo not drawn): greater than 501 µM and 196 µM.
`O=C(Nc1ccccn1)c1csc(NC2CCCC2)n1`: the IC50 in experiment [1] is 26.1 µM; in experiment [2], 46.7 µM.
`CCOC(=O)N1CCC(NC(=O)c2ccsc2)CC1`: the IC50 in experiment [1] was greater than 501 µM; in experiment [2] it was 137 µM.
The matching figures for `Cc1ccc(CNC(=O)c2ccc(F)cc2)o1`: 47.3 µM and 19.6 µM.
